Where two headings read alike, the source gives them in different places.
Molecular target: T1, Zcchc11 enzyme (Homo sapiens, UniProt Q5TAX3)
T1 construct: made in house; host or cells: HEK293 cells (Zcchc11); E. coli Rosetta II (LIN28A)
T1 sequence (Q5TAX3 212-1420): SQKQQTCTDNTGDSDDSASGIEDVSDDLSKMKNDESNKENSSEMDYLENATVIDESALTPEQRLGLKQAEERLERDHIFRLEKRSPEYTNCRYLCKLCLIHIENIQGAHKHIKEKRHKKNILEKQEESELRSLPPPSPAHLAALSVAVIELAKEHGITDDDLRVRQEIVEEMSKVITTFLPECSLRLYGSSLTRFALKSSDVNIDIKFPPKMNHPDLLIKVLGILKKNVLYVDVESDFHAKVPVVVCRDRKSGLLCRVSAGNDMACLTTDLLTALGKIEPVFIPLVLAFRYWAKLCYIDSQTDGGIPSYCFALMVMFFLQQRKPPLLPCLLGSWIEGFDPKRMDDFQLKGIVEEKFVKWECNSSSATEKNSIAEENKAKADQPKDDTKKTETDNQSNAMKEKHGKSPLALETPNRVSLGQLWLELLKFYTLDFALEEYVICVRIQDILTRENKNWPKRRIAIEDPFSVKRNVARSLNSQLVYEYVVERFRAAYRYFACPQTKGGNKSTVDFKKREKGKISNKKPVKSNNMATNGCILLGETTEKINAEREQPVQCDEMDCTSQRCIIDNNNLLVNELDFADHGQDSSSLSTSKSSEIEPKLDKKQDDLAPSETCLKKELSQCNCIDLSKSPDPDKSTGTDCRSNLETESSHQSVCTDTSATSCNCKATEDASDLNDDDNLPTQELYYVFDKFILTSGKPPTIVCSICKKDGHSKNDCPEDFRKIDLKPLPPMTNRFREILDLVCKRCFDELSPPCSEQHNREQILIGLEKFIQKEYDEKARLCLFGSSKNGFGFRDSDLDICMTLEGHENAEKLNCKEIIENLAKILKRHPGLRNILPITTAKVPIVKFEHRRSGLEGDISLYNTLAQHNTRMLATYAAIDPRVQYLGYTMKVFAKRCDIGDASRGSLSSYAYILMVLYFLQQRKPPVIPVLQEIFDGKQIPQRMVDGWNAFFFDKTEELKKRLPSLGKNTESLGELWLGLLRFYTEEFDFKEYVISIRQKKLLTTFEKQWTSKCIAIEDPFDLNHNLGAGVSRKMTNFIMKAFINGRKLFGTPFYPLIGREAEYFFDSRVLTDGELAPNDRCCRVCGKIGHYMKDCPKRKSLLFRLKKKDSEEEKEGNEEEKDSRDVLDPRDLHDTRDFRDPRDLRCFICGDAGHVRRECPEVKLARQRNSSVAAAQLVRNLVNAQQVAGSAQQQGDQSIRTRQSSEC
Assay: TUTase assay (Zcchc11 assay, Lin28a-dependent polyuridylation of pre-let-7)
Format: biochemical
Details: read-out: Potency Lin28a-dep Z11 IC50
Outline: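 HEK293-expressed human Zcchc11 (residues 212-1420, 0.2 nM) with 10 nM LIN28A and 2 nM 5′-fluorescein pre-let-7, preincubated 30 min at room temperature, pH 7.3. Started with 5 uM UTP; poly(U) tails quenched by 3′-rhodamine A20 probe, read kinetically. IC50 from early-rate four-parameter fit; no-UTP wells define 0%.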

[1] = Lin28a-dependent Zcchc11 (Z11) TUTase assay
[2] = Lin28a-dependent Zcchc11 (Z11) TUTase activity

Row | Structure (SMILES) | IC50 [1] | IC50 [2] | further results
1 | Cc1cccc(C)c1OC[C@H]1CCCN1c1cc2c(cc1F)c(=O)c(C(=O)O)cn2-c1ccc(O)cc1 [Compound 106, (R)-7-(2-((2,6-dimethyl-phenoxy)methyl)pyrrolidin-1-yl)-6-fluoro-1-(4-hydroxy-phenyl)-4-oxo-1,4-dihydro-quinoline-3-carboxylic acid] | – | > 50 µM | –
2 | COCCNc1ccc(-n2cc(C(=O)O)c(=O)c3cc(C#N)c(N4CCC[C@@H]4COc4ncccc4Cl)cc32)cn1 [Example 539, (R)-7-(2-(((3-chloropyridin-2-yl)oxy)methyl)pyrrolidin-1-yl)-6-cyano-1-(6-((2-methoxyethyl)amino)pyridin-3-yl)-4-oxo-1,4-dihydroquinoline-3-carboxylic acid] | ≤ 1 µM | – | –
3 | O=C(O)c1cn(-c2ccccc2)c2c(F)c(N3CCC[C@@H]3COc3ccccn3)c(F)cc2c1=O [Compound 86, (R)-6,8-difluoro-4-oxo-1-phenyl-7-(2-((pyridin-2-yloxy)methyl)pyrrolidin-1-yl)-1,4-dihydro-quinoline-3-carboxylic acid] | – | ≤ 1 µM | –
4 | O=C(O)c1cn(-c2cnc(OCc3ccccc3)cn2)c2cc(N3CCC[C@@H]3COc3ncccc3Cl)c(Cl)cc2c1=O [Example 503, (R)-1-(5-(benzyloxy)pyrazin-2-yl)-6-chloro-7-(2-(((3-chloropyridin-2-yl)oxy)methyl)pyrrolidin-1-yl)-4-oxo-1,4-dihydroquinoline-3-carboxylic acid] | 1 to 10 µM | – | –
5 | Cc1cccnc1OC[C@H]1CCCN1c1cc2c(cc1F)c(=O)c(C(=O)O)cn2-c1ccc(O)c(F)c1 [Compound 120, (R)-6-fluoro-1-(3-fluoro-4-hydroxy-phenyl)-7-(2-(((3-methylpyridin-2-yl)oxy)methyl)pyrrolidin-1-yl)-4-oxo-1,4-dihydro-quinoline-3-carboxylic acid] | – | ≤ 1 µM | –
6 | O=C(O)c1cn(-c2ccc3[nH]ncc3c2)c2cc(N3CCC[C@@H]3COc3ncccc3Cl)c(Cl)cc2c1=O [Compound 128, (R)-6-chloro-7-(2-(((3-chloropyridin-2-yl)oxy)methyl)pyrrolidin-1-yl)-1-(1H-indazol-5-yl)-4-oxo-1,4-dihydro-quinoline-3-carboxylic acid] | – | ≤ 1 µM | –
7 | COCCn1cc(-n2cc(C(=O)O)c(=O)c3cc(C#N)c(N4CCC[C@@H]4COc4ncccc4Cl)cc32)cn1 [Compound 242, 7-[(2R)-2-[[(3-chloropyridin-2-yl)oxy]methyl]pyrrolidin-1-yl]-6-cyano-1-[1-(2-methoxyethyl)pyrazol-4-yl]-4-oxoquinoline-3-carboxylic acid] | – | ≤ 1 µM | –
8 | Nc1cc(-n2cc(C(=O)O)c(=O)c3cc(Cl)c(N4CCC[C@@H]4COc4ncccc4Cl)cc32)ccn1 [Example 473, (R)-1-(2-aminopyridin-4-yl)-6-chloro-7-(2-(((3-chloropyridin-2-yl)oxy)methyl)pyrrolidin-1-yl)-4-oxo-1,4-dihydroquinoline-3-carboxylic acid] | ≤ 1 µM | – | –
9 | COc1c(N2CCC[C@@H]2COc2ccccn2)c(F)cc2c(=O)c(C(=O)O)cn(C3CC3)c12 [Example 3, (R)-1-cyclopropyl-6-fluoro-8-methoxy-4-oxo-7-(2-((pyridin-2-yloxy)methyl)pyrrolidin-1-yl)-1,4-dihydroquinoline-3-carboxylic acid] | – | – | IC50 (LIN28A 10 nM, Zcchc11 0.2 nM, 5′-fluorescein pre-let-7 miRNA 2 nM, UTP 5 uM, room temperature, 30 minutes pre-incubation): > 50 µM
10 | O=C(O)c1cn(-c2ccccc2F)c2cc(N3CCC[C@@H]3COc3ccccn3)c(F)cc2c1=O [Example 373, (R)-6-fluoro-1-(2-fluorophenyl)-4-oxo-7-(2-((pyridin-2-yloxy)methyl)pyrrolidin-1-yl)-1,4-dihydroquinoline-3-carboxylic acid] | 1 to 10 µM | – | –
11 | Cc1cccnc1OC[C@H]1CCCN1c1cc2c(cc1F)c(=O)c(C(=O)O)cn2-c1ccc2[nH]ccc2c1 [Example 442, (R)-6-fluoro-1-(1H-indol-5-yl)-7-(2-(((3-methyl-pyridin-2-yl)oxy)methyl)pyrrolidin-1-yl)-4-oxo-1,4-dihydroquinoline-3-carboxylic acid] | ≤ 1 µM | – | –
12 | O=C(O)c1cn(-c2cc3cc[nH]c3cc2F)c2cc(N3CCC[C@@H]3COc3ncccc3Cl)c(Cl)cc2c1=O [Example 505, (R)-6-chloro-7-(2-(((3-chloropyridin-2-yl)oxy)methyl)pyrrolidin-1-yl)-1-(6-fluoro-1H-indol-5-yl)-4-oxo-1,4-dihydroquinoline-3-carboxylic acid] | ≤ 1 µM | – | –

Now from value to molecule, other results behind:

Row | IC50 [1] | IC50 [2] | Structure (SMILES) | further results
13 | 1 to 10 µM | – | CN1CCC(n2cc(C(=O)O)c(=O)c3cc(Cl)c(N4CCC[C@@H]4COc4ncccc4Cl)cc32)CC1 [Example 462, (R)-6-chloro-7-(2-(((3-chloropyridin-2-yl)oxy)methyl)pyrrolidin-1-yl)-1-(1-methyl-piperidin-4-yl)-4-oxo-1,4-dihydro-quinoline-3-carboxylic acid] | –
14 | – | ≤ 1 µM | CC(=O)N1Cc2ccc(-n3cc(C(=O)O)c(=O)c4cc(Cl)c(N5CCC[C@@H]5COc5ncccc5Cl)cc43)cc2C1 [Compound 237, 1-(2-acetyl-1,3-dihydro-isoindol-5-yl)-6-chloro-7-[(2R)-2-[[(3-chloropyridin-2-yl)oxy]methyl]pyrrolidin-1-yl]-4-oxoquinoline-3-carboxylic acid] | –
15 | 1 to 10 µM | – | NC1CC(n2cc(C(=O)O)c(=O)c3cc(Cl)c(N4CCC[C@@H]4COc4ncccc4Cl)cc32)C1 (stereo partly drawn) [Example 471, (R)-1-(3-aminocyclobutyl)-6-chloro-7-(2-(((3-chloropyridin-2-yl)oxy)methyl)pyrrolidin-1-yl)-4-oxo-1,4-dihydroquinoline-3-carboxylic acid] | –
16 | 1 to 10 µM | – | O=C(O)c1cn(C2CC3(CNC3)C2)c2cc(N3CCC[C@@H]3COc3ncccc3Cl)c(Cl)cc2c1=O [Example 369, 1-{2-Azaspiro[3.3]heptan-6-yl}-6-chloro-7-[(2R)-2-{[(3-chloropyridin-2-yl)oxy]methyl}pyrrolidin-1-yl]-4-oxo-1,4-dihydroquinoline-3-carboxylic acid] | –
17 | – | 10 to 50 µM | CC1(n2cc(C(=O)O)c(=O)c3cc(Cl)c(N4CCC4COc4ccccn4)cc32)CC1 (stereo not drawn) [Compound 108, 6-chloro-1-(1-methyl-cyclopropyl)-4-oxo-7-(2-((pyridin-2-yloxy)methyl)azetidin-1-yl)-1,4-dihydro-quinoline-3-carboxylic acid] | –
18 | – | > 50 µM | CC(C)[C@H]1COC(=O)N1C[C@H]1CCCN1c1cc2c(cc1Cl)c(=O)c(C(=O)O)cn2C1(C)CC1 [Compound 140, 6-chloro-7-((R)-2-(((S)-4-isopropyl-2-oxooxazolidin-3-yl)methyl)pyrrolidin-1-yl)-1-(1-methylcyclo-propyl)-4-oxo-1,4-dihydro-quinoline-3-carboxylic acid] | –
19 | 1 to 10 µM | – | CN(C)CCn1cc(Cn2cc(C(=O)O)c(=O)c3cc(Cl)c(N4CCC[C@@H]4COc4ncccc4Cl)cc32)cn1 [Example 582, (R)-6-chloro-7-(2-(((3-chloropyridin-2-yl)oxy)methyl)pyrrolidin-1-yl)-1-((1-(2-(dimethylamino)ethyl)-1H-pyrazol-4-yl)methyl)-4-oxo-1,4-dihydroquinoline-3-carboxylic acid] | –
20 | 1 to 10 µM | – | Cc1cccnc1OC[C@H]1CCCN1c1cc2c(cc1Cl)c(=O)c(C(=O)O)cn2C1(CO)CC1 [Example 454, (R)-6-chloro-1-(1-(hydroxymethyl)cyclopropyl)-7-(2-(((3-methyl-pyridin-2-yl)oxy)methyl)pyrrolidin-1-yl)-4-oxo-1,4-dihydroquinoline-3-carboxylic acid] | –
21 | ≤ 1 µM | – | Cc1nc(N2CC(N(C)C)C2)ccc1-n1cc(C(=O)O)c(=O)c2cc(Cl)c(N3CCC[C@@H]3COc3ncccc3Cl)cc21 [Example 584, (R)-6-chloro-7-(2-(((3-chloropyridin-2-yl)oxy)methyl)pyrrolidin-1-yl)-1-(6-(3-(dimethylamino)azetidin-1-yl)-2-methylpyridin-3-yl)-4-oxo-1,4-dihydroquinoline-3-carboxylic acid] | –

From patent publication US12662491B2 (Redona Therapeutics, Inc., priority 2020, dated 2026)
